Like-named read-outs stand apart in the source and are kept apart here.

One data set relates to Pyricularia oryzae. Nature of the data set: microbe, parasite or virus in culture. The format is cell-based. The note with it: 120 h, read-out: efficacy (inhibition of fungal growth).
Data set [1] concerns Colletotrichum lindemuthianum. Nature of the data set: Example K: comparative data, in vivo preventive test on Colletotrichum lindemuthianum (antrachnose on bean). The note with it: rate of application 500 ppm, evaluated 6 days after inoculation.
In data set [2] the test system is Leptnosphaeria nodorum. Nature of the data set: Example D: Leptnosphaeria nodorum in vitro cell test. The format is cell-based. The note with it: 144 h, read-out: efficacy (inhibition of fungal growth).
Data set [3] in a line: Log P by HPLC on reversed phase columns, method [a] (acidic range, 0.1% formic acid).
Description: In the following, measurement of Log P values was performed according to EEC directive 79/831 Annex V.A8 by HPLC (High Performance Liquid Chromatography) on reversed phase columns with the following methods: • ^[a]
If more than one Log P value is available within the same method, all the values are given and separated by “+”.
Calibration was done with straight-chain alkan2-ones (with 3 to 16 carbon atoms) with known Log P values (measurement of Log P values using retention times with linear interpolation between successive alkanones).
Data set [4] concerns Colletotrichum lindemuthianum. Nature of the data set: Example F: Colletotrichum lindemuthianum in vitro cell test. The format is cell-based. The settings on record: 144 h, read-out: efficacy (inhibition of fungal growth).
The subject of a further data set is Septoria tritici. Nature of the data set: Example L: comparative data, Septoria tritici in vitro cell test. The note with it: rate of application 4 ppm; 7 days incubation. The format is cell-based. The procedure: Comparative Data—Septoria tritici In Vitro Cell Test Solvent: DMSOCulture medium: 14.6 g anhydrous D-glucose (VWR), 7.1 g Bacteriological Peptone (Oxoid), 1.4 g granulated Yeast Extract (Merck), QSP 1 literInoculum: spore suspension The compounds to be tested were solubilized in DMSO and the solution used to prepare the required range of concentrations. […] A spore suspension of S. tritici was prepared and diluted to the desired spore density. The tested compounds were evaluated for their ability to inhibit spore germination and mycelium growth in liquid culture assay. The compounds were added in the desired concentration to the culture medium to with spores. […] Inhibition of fungal growth was determined by comparing the absorbance values in wells containing the tested compound with the absorbance in control wells without tested compound.

A further data set has as its system Ustilago avenae. Nature of the data set: Example J: comparative data, Ustilago avenae in vitro cell test. The format is cell-based. The settings on record: rate of application 20 ppm; 4 days incubation.
In data set [5] the test system is Leptnosphaeria nodorum. Nature of the data set: Example I: comparative data, Leptnosphaeria nodorum in vitro cell test. The format is cell-based. The settings on record: rate of application 4 ppm; 6 days incubation.
A further data set deals with Botrytis cinerea. Nature of the data set: Example H: comparative data, in vivo preventive test on Botrytis cinerea (grey mould), gherkin. The note with it: rate of application 500 ppm, evaluated 4 to 5 days after inoculation.
Setting [6] is: HPLC on reversed phase columns, method [a]: acidic range.
Setting [7] is: 20 ppm of active ingredient, 6 days incubation.
Where [8] appears, read: LogP, method [a] / Method A: LC-UV, acidic range.
The mark [9] stands for this setting: logP, HPLC on reversed phase columns, method [a]: acidic range.

Regarding `CC(C)n1ccc(-c2c(F)cccc2Nc2cnc3ccccc3c2)n1` [Example I-027], the inhibition at 20 ppm with Pyricularia oryzae fell in the range of 90 to 100%; in the data set on Leptnosphaeria nodorum [2], 80 to 89%. The same molecule yielded an Efficacy in % in data set [1] of 65%. Also, in data set [3] (setting [6]), the logP was 4.05 ^[a].
Regarding `Cc1nc2c(F)c(F)ccc2cc1Nc1cccc(F)c1-c1ccnn1C` [Example I-050, 7,8-difluoro-N-[3-fluoro-2-(1-methyl-1H-pyrazol-5-yl)phenyl]-2-methylquinolin-3-amine], the inhibition at 20 ppm (in the data set on Pyricularia oryzae; in data set [4] (setting [7]); in the data set with Leptnosphaeria nodorum [2] (setting [7])) was 90 to 100% each time. The chromatographic logP in data set [3] (setting [8]) is 3.07; in data set [3] (setting [9]), 3.09.
In the case of `CC(C)(O)c1ccnn1-c1ccccc1Nc1cnc2ccccc2c1` [Example I-063], the chromatographic logP in data set [3] (setting [9]) was 1.79. The same molecule had an Efficacy in % with Septoria tritici of 96%.
As to `COC(=O)c1ccnn1-c1ccccc1Nc1cnc2ccccc2c1` [Example I-064, methyl 1-[2-(quinolin-3-ylamino)phenyl]-1H-pyrazole-5-carboxylate], the inhibition at 20 ppm in data set [4] (setting [7]) was 80 to 89%; in the data set on Leptnosphaeria nodorum [2] (setting [7]) it was 70 to 79%. The chromatographic logP in [3] (setting [8]) and in data set [3] (setting [9]) was 2.02 in each case.
Regarding `C=C(C)c1ccnn1-c1ccccc1Nc1cnc2ccccc2c1` [Example I-066], the Efficacy in % in the data set on Ustilago avenae was 63%; with Leptnosphaeria nodorum [5] it was 94%; in the data set with Botrytis cinerea it was 98%. Also, the inhibition at 20 ppm in the data set with Pyricularia oryzae was 90 to 100%; in [4] it was 80 to 89%; in the data set on Leptnosphaeria nodorum [2], 90 to 100%. In [3] (setting [9]), this molecule showed a chromatographic logP of 2.73.
On to `CC(C)n1ccc(-c2c(F)cccc2Nc2cnc3ccccc3c2)n1` [Example I-067], for which, in [3] (setting [6]), the logP was 1.94 ^[a]. Further, in the data set on Botrytis cinerea, the Efficacy in % is reported as 95%.
Regarding `CCn1nccc1-c1ccccc1Nc1cnc2c(F)cccc2c1` [Example I-080, N-[2-(1-ethyl-1H-pyrazol-5-yl)phenyl]-8-fluoroquinolin-3-amine], the inhibition at 20 ppm was in the range of 80 to 89% in the data set with Pyricularia oryzae, 90 to 100% in data set [4] (setting [7]) and 90 to 100% in the data set on Leptnosphaeria nodorum [2] (setting [7]). The results for the chromatographic logP in data set [3] (setting [8]) and in data set [3] (setting [9]) were 2.82 and 2.84, respectively.
With `Cc1nc2ccccc2nc1Nc1cccc(F)c1-c1ccnn1C` [Example I-083, N-[3-fluoro-2-(1-methyl-1H-pyrazol-5-yl)phenyl]-3-methylquinoxalin-2-amine], the inhibition at 20 ppm (with Pyricularia oryzae; in data set [4] (setting [7]); in the data set with Leptnosphaeria nodorum [2] (setting [7])) was 90 to 100% throughout. The chromatographic logP in data set [3] (setting [8]) and in data set [3] (setting [9]) was 2.82 in each case.
Consider `Fc1cccc2cc(Nc3ccccc3-c3ccnn3Cc3ccccc3)cnc12` [Example I-096, N-[2-(1-benzyl-1H-pyrazol-5-yl)phenyl]-8-fluoroquinolin-3-amine], for which the inhibition at 20 ppm (in the data set with Pyricularia oryzae; in data set [4] (setting [7]); in the data set on Leptnosphaeria nodorum [2] (setting [7])) was 90 to 100% each time. Further, the chromatographic logP in data set [3] (setting [8]) and in data set [3] (setting [9]) was 3.49 each time.
`C=C(C)c1ccnn1-c1ccccc1Oc1cnc2ccccc2c1` [drawing 46, reference compound] yielded an Efficacy in % in the data set with Botrytis cinerea of 20%.
On the same count and under the same terms, under `CC(C)n1ccc(-c2c(F)cccc2Oc2cnc3ccccc3c2)n1` [drawing 47, reference compound] stands 68%.
On to `C=C(C)c1ccnn1-c1ccccc1Oc1cnc2ccccc2c1` [drawing 50, reference compound], for which, in the data set with Leptnosphaeria nodorum [5], the Efficacy in % came to 64%.
For the molecule `C=C(C)c1ccnn1-c1ccccc1Oc1cnc2ccccc2c1` [drawing 52, reference compound], the Efficacy in % in the data set with Ustilago avenae came to 1%.
Regarding `CC(C)n1ccc(-c2c(F)cccc2Oc2cnc3ccccc3c2)n1` [drawing 54, reference compound], the Efficacy in % in [1] was found to be 0%.
In turn, `CC(C)(O)c1ccnn1-c1ccccc1Oc1cnc2ccccc2c1` [reference compound] registered an Efficacy in % with Septoria tritici of 0%.

Usually inhibition stands for the relative decrease from the control value, in per cent. The chromatographic logP is lipophilicity estimated from chromatographic retention. A lower chromatographic logP goes with a more hydrophilic compound.

The record behind these values is patent US11457629B2, “Heteroarylphenylaminoquinolines and analogues” (Bayer Aktiengesellschaft, priority 2017, dated 2022).
